Data: patent publication US20110046225A1, “Pharmaceutical formulation containing palmitoyl ethanolamide and stearoyl ethanolamide” (VERMONT ITALIA SRL, priority 2008, published 2011)

Key:
[1] = tested on: RBL-2H3 cells; assay: inhibition of β-hexosaminidase release in IgE/DNP-stimulated RBL-2H3 mastocyte cells; format: cell-based; conditions: stimulated RBL-2H3 cells, culture medium; for INHIBITION OF β-HEXOSAMINIDASE RELEASE (% on test): 10 μM
Text: More specifically, a RBL-2H3 mastocyte cell line was used to express high-affinity receptors for the IgE immunoglobulins. The interaction of the antigens with the IgE molecules present on the cell surface stimulates secretion by said cells of the pro-inflammatory contents of their intracytoplasmic granules, amongst which significant quantities of: histamine, leukotrienes, prostaglandins and TNF-alfa. The RBL-2H3 therefore represent an excellent cell module for the study of the mechanisms of exocytosis and release of the inflammatory mediators and of the relative modulation, as the case may be. In particular, measurement of the activity by the β-hexosaminidase enzyme was performed, the release of which correlates positively with the secretion of very strong pro-inflammatory mediators such as histamine and TNF-alfa. As already specified, a RBL-2H3 mastocyte cell line was used to express high-affinity receptors for the IgE immunoglobulins, whilst the assessment of cell vitality was recorded by way of the MTT method. The RBL-2H3 cell culture was started with a density amounting to 20,000 cells/well (96 wells) and incubated with IgE-anti-DNP. After about one hour, the antigen (DNP) was introduced into the culture, then after another 30 minutes the culture medium was harvested. Measurement of the activity by the β-hexosaminidase enzyme was performed on the harvested […], the release of which correlated positively with the secretion of very strong pro-inflammatory mediators such as histamine and TNF-alfa. A reduction of the enzymatic activities in the culture medium signifies minor cell degranulation and thus […]. The molecules according to the patent application herein were solubilised in DMSO and both added in variable concentrations to the cell cultures 1 hour prior to the introduction of the antigen.

[2] = molecular target: receptor GPR55 (Homo sapiens, UniProt Q9Y2T6); conditions: Ryberg et al. 2007; cited from earlier work
[3] = U.S. Pat. No. 5,990,170; 5,679,667; 5,506,224; cited from earlier work
[4] = cited from earlier work

Sequence of receptor GPR55 (Q9Y2T6 whole entry): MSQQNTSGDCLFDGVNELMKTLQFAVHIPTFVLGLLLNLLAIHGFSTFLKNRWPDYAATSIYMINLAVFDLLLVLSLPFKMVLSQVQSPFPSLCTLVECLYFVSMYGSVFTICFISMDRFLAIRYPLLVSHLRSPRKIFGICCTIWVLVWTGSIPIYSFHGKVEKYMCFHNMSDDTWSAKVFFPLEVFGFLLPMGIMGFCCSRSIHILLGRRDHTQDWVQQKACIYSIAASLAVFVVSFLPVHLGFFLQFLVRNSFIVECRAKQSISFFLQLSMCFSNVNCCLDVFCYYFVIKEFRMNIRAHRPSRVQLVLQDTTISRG

SMILES | INHIBITION OF β-HEXOSAMINIDASE RELEASE (% on test) [1] [%] | inhibition at 10 µM ([1]; Rattus norvegicus, read-out: INHIBITION OF β-HEXOSAMINIDASE RELEASE (% on test)) [%] | affinity for GPR55 [2] | anti-inflammatory activity relative to PEA [3] | solubility in aqueous environments [4]
C[C@@H]1C[C@H]2[C@@H]3CCC4=CC(=O)C=C[C@]4(C)[C@@]3(F)[C@@H](O)C[C@]2(C)[C@@]1(O)C(=O)CO [Desametazone, reference compound] | 40.2 |  |  |  | 
CCCCCCCCCCCCCCCC(=O)NCCO [Palmitoyl ethanolamide (PEA), palmitoyl ethanolamide] |  | 23.6 | nano-mole affinity array |  | 
CCCCCCCCCCCCCCCCCC(=O)NCCO [Stearoyl ethanolamide (SEA), Stearoyl ethanolamide] | 25.3 |  |  | much less active than the lower homologue PEA | extremely scarce
CCCCCc1cc(O)c2c(c1)OC(C)(C)[C@@H]1CCC(C)=C[C@@H]21 [THC, delta-9-tetrahydrocannabinol, reference compound] |  |  | nano-mole affinity array |  | 
